≈ marks a conversion by molar mass, not a printed value. Blank lines part the entries; values can stand above or below the compound they belong to.
How the values were obtained:
[1] = Intrinsic solubility of the compound; assay type: physicochemical
[2] = Ratio of drug level in Sprague-Dawley rat brain to plasma; assay type: ADME, cell-free; settings: brain and plasma, read-out: BPR
[3] = Permeability of the compound by PAMPA; assay type: ADME; settings: read-out: permeability
[4] = Solubility of the compound in DMSO; assay type: physicochemical
[5] = Solubility of the compound in FaSSIF at pH 6; assay type: physicochemical
[6] = Solubility of the compound in FeSSIF at pH 5.2; assay type: physicochemical
[7] = Solubility of the compound in acetate buffer at pH 4.5; assay type: physicochemical
[8] = Solubility of the compound in 0.1N HCl; assay type: physicochemical
Rattus norvegicus [9] = assay: Cmax in Sprague-Dawley rat at 10 mg/kg, po; assay type: ADME, organism-based; parameters: dose 10 mg/kg, route oral; settings: in vivo
Rattus norvegicus [10] = assay: AUC (0 to 24 hrs) in Sprague-Dawley rat at 10 mg/kg, po; assay type: ADME, organism-based; parameters: time < 24 hr, dose 10 mg/kg, route oral; settings: in vivo
Rattus norvegicus [11] = assay: Tmax in Sprague-Dawley rat at 10 mg/kg, po; assay type: ADME, organism-based; settings: in vivo
[12] = Oral bioavailability in Sprague-Dawley rat at 10 mg/kg; assay type: ADME, organism-based; settings: in vivo
[13] = Cmax in Sprague-Dawley rat at 30 mg/kg, po; assay type: ADME, organism-based; parameters: dose 30 mg/kg, route oral; settings: in vivo
[14] = AUC (0 to 24 hrs) in Sprague-Dawley rat at 30 mg/kg, po; assay type: ADME, organism-based; parameters: time < 24 hr, dose 30 mg/kg, route oral; settings: in vivo
[15] = Tmax in Sprague-Dawley rat at 30 mg/kg, po; assay type: ADME, organism-based; settings: in vivo
[16] = Oral bioavailability in Sprague-Dawley rat at 30 mg/kg; assay type: ADME, organism-based; settings: in vivo
[17] = Cmax in Sprague-Dawley rat at 100 mg/kg, po; assay type: ADME, organism-based; parameters: dose 100 mg/kg, route oral; settings: in vivo
[18] = AUC (0 to 24 hrs) in Sprague-Dawley rat at 100 mg/kg, po; assay type: ADME, organism-based; parameters: dose 100 mg/kg, time < 24 hr, route oral; settings: in vivo
[19] = Tmax in Sprague-Dawley rat at 100 mg/kg, po; assay type: ADME, organism-based; settings: in vivo
[20] = Cmax in Dunkin-Hartley guinea pig at 10 mg/kg, po; assay type: ADME, organism-based, Cavia porcellus; parameters: dose 10 mg/kg, route oral; settings: in vivo
[21] = AUC (0 to 24 hrs) in Dunkin-Hartley guinea pig at 10 mg/kg, po; assay type: ADME, organism-based, Cavia porcellus; parameters: time < 24 hr, dose 10 mg/kg, route oral; settings: in vivo
[22] = Tmax in Dunkin-Hartley guinea pig at 10 mg/kg, po; assay type: ADME, organism-based, Cavia porcellus; settings: in vivo
[23] = Cmax in Dunkin-Hartley guinea pig at 30 mg/kg, po; assay type: ADME, organism-based, Cavia porcellus; parameters: dose 30 mg/kg, route oral; settings: in vivo
[24] = AUC (0 to 24 hrs) in Dunkin-Hartley guinea pig at 30 mg/kg, po; assay type: ADME, organism-based, Cavia porcellus; parameters: dose 30 mg/kg, time < 24 hr, route oral; settings: in vivo
[25] = Tmax in Dunkin-Hartley guinea pig at 30 mg/kg, po; assay type: ADME, organism-based, Cavia porcellus; settings: in vivo
[26] = Cmax in Dunkin-Hartley guinea pig at 100 mg/kg, po; assay type: ADME, organism-based, Cavia porcellus; parameters: dose 100 mg/kg, route oral; settings: in vivo
[27] = AUC (0 to 24 hrs) in Dunkin-Hartley guinea pig at 100 mg/kg, po; assay type: ADME, organism-based, Cavia porcellus; parameters: time < 24 hr, dose 100 mg/kg, route oral; settings: in vivo
[28] = Tmax in Dunkin-Hartley guinea pig at 100 mg/kg, po; assay type: ADME, organism-based, Cavia porcellus; settings: in vivo
[29] = Cmax in Beagle dog at 10 mg/kg, po; assay type: ADME, organism-based, Canis lupus familiaris; parameters: dose 10 mg/kg, route oral; settings: in vivo
[30] = AUC (0 to 24 hrs) in Beagle dog at 10 mg/kg, po; assay type: ADME, organism-based, Canis lupus familiaris; parameters: time < 24 hr, dose 10 mg/kg, route oral; settings: in vivo
[31] = Tmax in Beagle dog at 10 mg/kg, po; assay type: ADME, organism-based, Canis lupus familiaris; settings: in vivo
[32] = Cmax in cynomolgus monkey at 10 mg/kg, po; assay type: ADME, organism-based, Macaca fascicularis; parameters: dose 10 mg/kg, route oral; settings: in vivo
[33] = AUC (0 to 24 hrs) in cynomolgus monkey at 10 mg/kg, po; assay type: ADME, organism-based, Macaca fascicularis; parameters: dose 10 mg/kg, time < 24 hr, route oral; settings: in vivo
[34] = Tmax in cynomolgus monkey at 10 mg/kg, po; assay type: ADME, organism-based, Macaca fascicularis; settings: in vivo
[35] = Oral bioavailability in cynomolgus monkey at 10 mg/kg; assay type: ADME, organism-based, Macaca fascicularis; settings: in vivo
Cynomolgus monkey = assay: Apparent volume of distribution in cynomolgus monkey at 10 mg/kg, po; assay type: ADME, organism-based, Macaca fascicularis; settings: in vivo
[36] = Drug level in Sprague-Dawley rat brain; assay type: ADME, tissue-based; settings: in vivo
[37] = Drug level in Sprague-Dawley rat plasma; assay type: ADME, cell-free
[38] = Plasma concentration in Dunkin-Hartley guinea pig model of LPS-induced thermal hyperalgesia at 3 mg/kg, po pretreated for 4 hrs followed by LPS challenge measured at […] post dose; assay type: ADME, organism-based, Cavia porcellus
[39] = Plasma concentration in Dunkin-Hartley guinea pig model of LPS-induced thermal hyperalgesia at 10 mg/kg, po pretreated for 4 hrs followed by LPS challenge measured at […] post dose; assay type: ADME, organism-based, Cavia porcellus
[40] = Plasma concentration in Dunkin-Hartley guinea pig model of LPS-induced thermal hyperalgesia at 30 mg/kg, po pretreated for 4 hrs followed by LPS challenge measured at […] post dose; assay type: ADME, organism-based, Cavia porcellus
Rattus norvegicus [41] = assay: Apparent volume of distribution in Sprague-Dawley rat at 1 mg/kg, iv; settings: in vivo

SMILES: CC1(C)Cc2c(c(C(=O)NCC(F)(F)C(F)(F)F)cc3nc(Nc4c(Cl)cccc4Cl)[nH]c23)O1
solubility [1]: Soluble

SMILES: CC1(C)Cc2c(c(C(=O)NCC3CC3)cc3nc(Nc4c(Cl)cncc4Cl)[nH]c23)O1
solubility [1]: Soluble

SMILES: CC1(C)Cc2c(c(C(=O)Nc3ccc(OC(F)F)nc3)cc3nc(Nc4c(F)cccc4Cl)[nH]c23)O1
solubility [1]: Soluble

SMILES: CC1(C)Cc2c(c(C(=O)NC3CCC(F)(F)CC3)cc3nc(Nc4c(Cl)cccc4Cl)[nH]c23)O1
solubility [1]: Soluble

SMILES: CC1(C)Cc2c(c(C(=O)NCC3CCCCC3)cc3nc(Nc4c(Cl)cncc4Cl)[nH]c23)O1
solubility [1]: Soluble

SMILES: CC1(C)Cc2c(c(C(=O)NCC3CC3)cc3nc(Nc4c(Cl)cccc4Cl)[nH]c23)O1
solubility [1]: Soluble

SMILES: CC1(C)Cc2c(c(C(=O)Nc3ccc(Cl)cn3)cc3nc(Nc4c(F)cccc4Cl)[nH]c23)O1
solubility [1]: Soluble

SMILES: CC1(C)Cc2c(c(C(=O)NCC3CCCC3)cc3nc(Nc4c(Cl)cccc4Cl)[nH]c23)O1
solubility [1]: Soluble

SMILES: CC1(C)Cc2c(c(C(=O)Nc3ccc(F)cc3)cc3nc(Nc4c(F)cccc4Cl)[nH]c23)O1
solubility [1]: Soluble

SMILES: CC1(C)Cc2c(c(C(=O)Nc3ccc(C(F)(F)F)cc3F)cc3nc(Nc4c(Cl)cncc4Cl)[nH]c23)O1
solubility [1]: Soluble

SMILES: Cc1ccc(NC(=O)c2cc3nc(Nc4c(Cl)cccc4Cl)[nH]c3c3c2OC(C)(C)C3)c(C)n1
solubility [1]: Soluble

SMILES: CC1(C)Cc2c(c(C(=O)Nc3ccc(C4CC4)cc3)cc3nc(Nc4c(F)cccc4Cl)[nH]c23)O1
solubility [1]: Soluble

SMILES: CC1(C)Cc2c(c(C(=O)NCC(F)(F)F)cc3nc(Nc4c(Cl)cccc4Cl)[nH]c23)O1
solubility [1]: Soluble

SMILES: CC1(C)Cc2c(c(C(=O)NC3CCCCC3)cc3nc(Nc4c(Cl)cncc4Cl)[nH]c23)O1
solubility [1]: Soluble

The next lines start with the values.

solubility [1]: Soluble | Kp [2]: 0.22 | Papp [3]: 0.13 ×10⁻⁶ cm/s | solubility [4]: 25000 µg/mL (≈ 48200 µM) | solubility [5]: 0.9 µg/mL (≈ 1.73 µM) | solubility [6]: 0.6 µg/mL (≈ 1.16 µM) | solubility [7]: Insoluble | solubility [8]: 0.2 µg/mL (≈ 0.385 µM) | Cmax (Rattus norvegicus [9]): 546 ng/mL | AUC (Rattus norvegicus [10]): 6505 ng·h/mL | Tmax (Rattus norvegicus [11]): 2 h | bioavailability [12]: 100% | Cmax [13]: 2530 ng/mL | AUC(0-t) at 24 h [14]: 32400 ng·h/mL | Tmax [15]: 2 h | bioavailability [16]: 100% | Cmax [17]: 5550 ng/mL | AUC(0-t) at 24 h [18]: 108000 ng·h/mL | Tmax [19]: 8 h | Cmax [20]: 426 ng/mL | AUC(0-t) at 24 h [21]: 5080 ng·h/mL | Tmax [22]: 4 h | Cmax [23]: 742 ng/mL | AUC(0-t) at 24 h [24]: 11600 ng·h/mL | Tmax [25]: 4 h | Cmax [26]: 736 ng/mL | AUC(0-t) at 24 h [27]: 11700 ng·h/mL | Tmax [28]: 2 h | Cmax [29]: 1090 ng/mL | AUC(0-t) at 24 h [30]: 22000 ng·h/mL | Tmax [31]: 12 h | Cmax [32]: 908 ng/mL | AUC(0-t) at 24 h [33]: 16700 ng·h/mL | Tmax [34]: 6 h | bioavailability [35]: 78% | Vz (Cynomolgus monkey): 1.67 L/kg | Drug uptake [36]: 58.9 ng/mL | Cp [37]: 268.9 ng/mL | concentration at […] [38]: 43 ng/mL | concentration at […] [39]: 116 ng/mL | concentration at […] [40]: 371 nM | Vz (Rattus norvegicus [41]): 3.59 L/kg
SMILES: CC1(C)Cc2c(c(C(=O)Nc3ccc(C(F)(F)F)cc3)cc3nc(Nc4c(F)cccc4Cl)[nH]c23)O1

solubility [1]: Soluble
SMILES: CC1(C)Cc2c(c(C(=O)Nc3ccc(F)cc3)cc3nc(Nc4c(Cl)cccc4Cl)[nH]c23)O1

solubility [1]: Soluble
SMILES: CC1(C)Cc2c(c(C(=O)Nc3ccc(F)c(C(F)(F)F)c3)cc3nc(Nc4c(Cl)cncc4Cl)[nH]c23)O1

solubility [1]: Soluble
SMILES: CC1(C)Cc2c(c(C(=O)Nc3ccccc3)cc3nc(Nc4c(Cl)cccc4Cl)[nH]c23)O1

solubility [1]: Soluble
SMILES: COc1ccc(NC(=O)c2cc3nc(Nc4c(Cl)cccc4Cl)[nH]c3c3c2OC(C)(C)C3)cn1

solubility [1]: Insoluble
SMILES: Cc1cc2c(o1)c(C(=O)Nc1ccc(C(F)(F)F)cc1)cc1nc(Nc3c(Cl)cncc3Cl)[nH]c12

solubility [1]: Soluble | solubility [4]: 20000 µg/mL (≈ 37400 µM) | solubility [5]: 0.3 µg/mL (≈ 0.56 µM) | solubility [6]: 0.6 µg/mL (≈ 1.12 µM) | solubility [7]: Insoluble | solubility [8]: 0.1 µg/mL (≈ 0.187 µM)
SMILES: CC1(C)Cc2c(c(C(=O)Nc3ccc(C(F)(F)F)cc3)cc3nc(Nc4c(Cl)cccc4Cl)[nH]c23)O1

solubility [1]: Soluble
SMILES: CC1(C)Cc2c(c(C(=O)Nc3cccc(C4CC4)c3)cc3nc(Nc4c(F)cccc4Cl)[nH]c23)O1

solubility [1]: Insoluble
SMILES: Cc1cc2c(o1)c(C(=O)Nc1ccc(C(F)(F)F)cc1)cc1nc(Nc3c(Cl)cccc3Cl)[nH]c12

solubility [1]: Insoluble
SMILES: Cc1cc2c(o1)c(C(=O)Nc1cccc(C(F)(F)F)c1)cc1nc(Nc3c(Cl)cccc3Cl)[nH]c12

solubility [1]: Soluble
SMILES: CC1(C)Cc2c(c(C(=O)Nc3ccc(C(F)(F)F)nc3)cc3nc(Nc4c(Cl)cccc4Cl)[nH]c23)O1

solubility [1]: Soluble
SMILES: CC1(C)Cc2c(c(C(=O)Nc3ccc(C(F)(F)F)cc3)cc3nc(Nc4c(Cl)cncc4Cl)[nH]c23)O1
